19 molecules from paper PMC6320941, “Synthesis and Evaluation of 3-Substituted-4-(quinoxalin-6-yl) Pyrazoles as TGF-β Type I Receptor Kinase Inhibitors” (Molecules, 2018) can be followed below.

Data set [1] addresses p38α MAP kinase (Homo sapiens, UniProt Q16539). Kind of data set: Radiometric 33PanQinase p38α MAP kinase assay (ProQinase), ATF2 substrate. The class given is biochemical. The note with it: for remaining activity at 10 µM: compound at 10 μM, in duplicate, read-out: Residual Activity (%) p38α. From the text:
We selected p38α MAP kinase to survey the selectivity profile of this series of compounds because its kinase domain is among the most homologous to that of ALK5 [27].
(§1) All kinase experiments were completed by the ProQinase (Freiburg, Germany). All protein kinases were expressed in Sf9 insect cells or in E. coli as recombinant GST-fusion proteins or His-tagged proteins, either as full-length or enzymatically active fragments. All kinases were obtained from human cDNAs and purified by either GSH-affinity chromatography or immobilized metal. The purity of the protein kinases was examined by SDS-PAGE/Coomassie staining. The identity was checked by mass spectroscopy.
(§2) A radiometric protein kinase assay (^33PanQinase® activity assay) was used for measuring the kinase activity of the two protein kinases. All kinase assays were performed in 96-well FlashPlates^TM from PerkinElmer (Boston, MA, USA) in 50 μL reaction volumes. The reaction cocktail was pipetted in four steps in the following order: 20 μL of assay buffer (standard buffer), 5 μL of ATP solution (in H2O), 5 μL of test compound (in 10% DMSO), 20 μL enzyme/substrate mix.
(§3) The assay for all protein kinases contained 70 mM HEPES-NaOH pH 7.5, 3 mM MgCl2, 3 mM MnCl2, 3 μM Na-orthovanadate, 1.2 mM DTT, 50 μg/mL PEG20000, ATP, [γ-^33P]-ATP, protein kinase, and substrate.
(§4) The reaction cocktail was incubated at 30 °C for 60 min. The reaction was halted with 50 μL of 2% (v/v) H3PO4, plates were aspirated and washed two times with 200 μL 0.9% (w/v) NaCl. Incorporation of ^33Pi was established with a microplate scintillation counter (PerkinElmer, Boston, MA, USA). All assays were performed with a BeckmanCoulter/SAGIAN™ Core System.

Data set [2] addresses T1, ALK5 (Homo sapiens, UniProt P36897).
T1 sequence (P36897 205-495 limits assumed): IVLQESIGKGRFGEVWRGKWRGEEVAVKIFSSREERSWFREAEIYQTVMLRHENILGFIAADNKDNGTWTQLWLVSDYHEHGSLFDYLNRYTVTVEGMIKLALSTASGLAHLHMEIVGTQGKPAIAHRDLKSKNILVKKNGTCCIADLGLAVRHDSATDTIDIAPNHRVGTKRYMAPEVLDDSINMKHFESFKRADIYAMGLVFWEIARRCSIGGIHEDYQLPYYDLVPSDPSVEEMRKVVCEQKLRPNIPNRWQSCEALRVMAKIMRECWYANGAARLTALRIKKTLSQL
Nature of the data set: Radiometric 33PanQinase ALK5 kinase assay (ProQinase), casein substrate. Type of data set: biochemical. The note with it: for remaining activity at 10 µM: compound at 10 μM, in duplicate, read-out: Residual Activity (%) ALK5; for Selectivity Index: IC50 of p38α/IC50 of ALK5; for ALK5 inhibitory activity in words: at up to 5.0 μM for 18a–d, 'at up to 2.26 μM' for pyrimidin-4-yl compounds. The protocol: To investigate whether compounds 14a–d, 15a–d, 16a–d, 17a–d, 18a–d, and 19a–d would inhibit ALK5, a kinase assay for preliminary screening was performed using the purified human ALK5 kinase domain produced in Sf9 insect cells and compounds at 10 μM.
as §1, §2, §3, §4

Where only a bound is given, the exact number is not on record here.

p38α MAP kinase, sequence (Q16539 whole entry, the tested form may be a part): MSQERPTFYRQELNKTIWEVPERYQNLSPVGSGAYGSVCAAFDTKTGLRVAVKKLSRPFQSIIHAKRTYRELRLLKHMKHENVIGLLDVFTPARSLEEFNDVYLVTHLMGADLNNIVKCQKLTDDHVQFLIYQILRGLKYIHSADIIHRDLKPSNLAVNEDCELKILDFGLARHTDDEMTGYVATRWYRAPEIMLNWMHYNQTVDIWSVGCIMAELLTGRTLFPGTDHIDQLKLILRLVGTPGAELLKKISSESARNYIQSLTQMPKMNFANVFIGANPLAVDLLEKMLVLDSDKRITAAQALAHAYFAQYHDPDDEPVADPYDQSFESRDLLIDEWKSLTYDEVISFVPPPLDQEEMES

The molecule `CN(C)c1cccc(-c2c(-c3ccc4nccnc4c3)cnn2CC(=O)Nc2cccc(F)c2)n1` [Compound 15c, 2-(5-(6-(Dimethylamino)pyridin-2-yl)-4-(quinoxalin-6-yl)-1H-pyrazol-1-yl)-N-(3-fluorophenyl)acetamide] came in with a melting point of 146.5 to 147.6 °C. Further, the remaining activity at 10 µM in data set [1] worked out at 109%. In addition, in data set [2], the remaining activity at 10 µM amounted to 88%.
The corresponding values for `CN(C)c1cccc(-c2c(-c3ccc4nccnc4c3)cnn2CC(=O)Nc2cccc(C#N)c2)n1` [Compound 15d, N-(3-Cyanophenyl)-2-(5-(6-(dimethylamino)pyridin-2-yl)-4-(quinoxalin-6-yl)-1H-pyrazol-1-yl)acetamide] are 145.5 to 148 °C, 109% and 94%.
The corresponding values for `CN(C)c1cccc(-c2nn(CC(=O)Nc3ccccc3F)cc2-c2ccc3nccnc3c2)n1` [Compound 14b, 2-(3-(6-(Dimethylamino)pyridin-2-yl)-4-(quinoxalin-6-yl)-1H-pyrazol-1-yl)-N-(2-fluorophenyl)acetamide] are 190.5 to 193 °C, 118% and 84%.
The corresponding values for `CN(C)c1cccc(-c2c(-c3ccc4nccnc4c3)cnn2CC(=O)Nc2ccccc2F)n1` [Compound 15b, 2-(5-(6-(Dimethylamino)pyridin-2-yl)-4-(quinoxalin-6-yl)-1H-pyrazol-1-yl)-N-(2-fluorophenyl)acetamide] are 130.2 to 133 °C, 117% and 87%.
The molecule `CN(C)c1cccc(-c2nn(CC(=S)Nc3ccccc3F)cc2-c2ccc3nccnc3c2)n1` [Compound 18b, 2-(3-(6-(Dimethylamino)pyridin-2-yl)-4-(quinoxalin-6-yl)-1H-pyrazol-1-yl)-N-(2-fluorophenyl)ethanethioamide] registered a melting point of 88.3 to 91.2 °C. For the same molecule, in data set [1], the concentration for half-maximal inhibition (IC50) was over 10 µM and the remaining activity at 10 µM came to 125%. Also, in data set [2], the IC50 was over 10 µM and the remaining activity at 10 µM turned out to be 70%.
For the molecule `Cc1csc(-c2nn(CC(=O)Nc3ccccc3F)cc2-c2ccc3nccnc3c2)n1` [Compound 16b, N-(2-Fluorophenyl)-2-(3-(4-methylthiazol-2-yl)-4-(quinoxalin-6-yl)-1H-pyrazol-1-yl)acetamide], the melting point is 197.5 to 200 °C. The remaining activity at 10 µM in data set [1] turned out to be 103%. Moreover, the remaining activity at 10 µM in data set [2] stood at 5%.
On to `Cc1csc(-c2c(-c3ccc4nccnc4c3)cnn2CC(=O)Nc2ccccc2F)n1` [Compound 17b, N-(2-Fluorophenyl)-2-(5-(4-methylthiazol-2-yl)-4-(quinoxalin-6-yl)-1H-pyrazol-1-yl)acetamide], for which the remaining activity at 10 µM in data set [1] was 54%; in data set [2] it was 73%.
Consider `O=C(Cn1cc(-c2ccc3nccnc3c2)c(-c2ccncn2)n1)Nc1ccccc1F` [Compound 25b, N-(2-Fluorophenyl)-2-(3-(pyrimidin-4-yl)-4-(quinoxalin-6-yl)-1H-pyrazol-1-yl)acetamide], for which the melting point fell in the range of 192.3 to 194.5 °C. Further, the half-inhibitory concentration (IC50) in data set [1] was over 10 µM. In data set [2], the IC50 came out at 3.66 µM, the “Selectivity Index” value is over 3 and the “ALK5 inhibitory activity in words” value is recorded as “no significant ALK5 inhibition activity”.
As to `N#Cc1cccc(NC(=S)Cn2cc(-c3ccc4nccnc4c3)c(-c3ccncn3)n2)c1` [Compound 27d, N-(3-Cyanophenyl)-2-(3-(pyrimidin-4-yl)-4-(quinoxalin-6-yl)-1H-pyrazol-1-yl)ethanethioamide], in data set [1], the IC50 was over 10 µM. In data set [2], the IC50 is 2.26 µM, the “Selectivity Index” value is over 4 and the “ALK5 inhibitory activity in words” value was “no significant ALK5 inhibition activity”.
Consider `CN(C)c1cccc(-c2c(-c3ccc4nccnc4c3)cnn2CC(=O)Nc2ccccc2)n1` [Compound 15a, 2-(5-(6-(Dimethylamino)pyridin-2-yl)-4-(quinoxalin-6-yl)-1H-pyrazol-1-yl)-N-phenylacetamide], for which the values for the remaining activity at 10 µM in data set [1] and in data set [2] were 118% and 95%, respectively.
Consider `Cc1cccc(-c2nn3c(c2-c2ccnc4ccc(C(N)=O)cc24)CCC3)n1` [Compound 3, LY-2157299, reference compound], for which, in data set [1], half-maximal inhibition (IC50) required 0.49 µM and the remaining activity at 10 µM worked out at 4%. The remaining activity at 10 µM in data set [2] came out at 1%.
For `Cc1csc(-c2nn(CC(=S)Nc3ccccc3)cc2-c2ccc3nccnc3c2)n1` [Compound 19a, 2-(3-(4-Methylthiazol-2-yl)-4-(quinoxalin-6-yl)-1H-pyrazol-1-yl)-N-phenylethanethioamide], in data set [1], the IC50 was over 10 µM and the remaining activity at 10 µM amounted to 102%. For the same molecule, in data set [2], 0.57 µM corresponded to half-maximal inhibition (IC50), the “Selectivity Index” value is listed as over 17 and the remaining activity at 10 µM was 5%.
On to `Cc1csc(-c2c(-c3ccc4nccnc4c3)cnn2CC(=O)Nc2ccccc2)n1` [Compound 17a, 2-(5-(4-Methylthiazol-2-yl)-4-(quinoxalin-6-yl)-1H-pyrazol-1-yl)-N-phenylacetamide], for which the values for the remaining activity at 10 µM in data set [1] and in data set [2] were 68% and 46%, respectively.
The corresponding values for `Cc1csc(-c2c(-c3ccc4nccnc4c3)cnn2CC(=O)Nc2cccc(C#N)c2)n1` [Compound 17d, N-(3-Cyanophenyl)-2-(5-(4-methylthiazol-2-yl)-4-(quinoxalin-6-yl)-1H-pyrazol-1-yl)acetamide] are 97% and 58%.
On to `Cc1csc(-c2nn(CC(=S)Nc3ccccc3F)cc2-c2ccc3nccnc3c2)n1` [Compound 19b, N-(2-Fluorophenyl)-2-(3-(4-methylthiazol-2-yl)-4-(quinoxalin-6-yl)-1H-pyrazol-1-yl)ethanethioamide], for which, in data set [1], the IC50 is over 10 µM and the remaining activity at 10 µM came out at 92%. Further, in data set [2], the IC50 turned out to be 0.28 µM, the “fold more selective than compound 3 (LY-2157299) against p38α MAP kinase” value was determined as 9.0 fold, the “Selectivity Index” value is reported as over 35 and the remaining activity at 10 µM stood at 2%. This molecule also showed an inhibition at 10 µM in data set [2] (at 10 µM) of 98%.
For the molecule `Cc1csc(-c2c(-c3ccc4nccnc4c3)cnn2CC(=O)Nc2cccc(F)c2)n1` [Compound 17c, N-(3-Fluorophenyl)-2-(5-(4-methylthiazol-2-yl)-4-(quinoxalin-6-yl)-1H-pyrazol-1-yl)acetamide], the values for the remaining activity at 10 µM in data set [1] and in data set [2] were 66% and 69%, respectively.
Take `Fc1ccccc1NC(=S)Cn1cc(-c2ccc3nccnc3c2)c(-c2ccncn2)n1` [Compound 27b, N-(2-Fluorophenyl)-2-(3-(pyrimidin-4-yl)-4-(quinoxalin-6-yl)-1H-pyrazol-1-yl)ethanethioamide]: the IC50 in data set [1] and in data set [2] was over 10 µM in each case. Also, the “ALK5 inhibitory activity in words” value in data set [2] is reported as “no significant ALK5 inhibition activity”.
As for `Cc1csc(-c2nn(CC(=S)Nc3cccc(C#N)c3)cc2-c2ccc3nccnc3c2)n1` [Compound 19d, N-(3-Cyanophenyl)-2-(3-(4-methylthiazol-2-yl)-4-(quinoxalin-6-yl)-1H-pyrazol-1-yl)ethanethioamide], in data set [1], the concentration for half-maximal inhibition (IC50) is over 10 µM and the remaining activity at 10 µM was 105%. Also, in data set [2], inhibition was half-maximal at 0.37 µM (IC50), the “Selectivity Index” value was over 27 and the remaining activity at 10 µM amounted to 13%.
For `Cc1csc(-c2nn(CC(=S)Nc3cccc(F)c3)cc2-c2ccc3nccnc3c2)n1` [Compound 19c, N-(3-Fluorophenyl)-2-(3-(4-methylthiazol-2-yl)-4-(quinoxalin-6-yl)-1H-pyrazol-1-yl)ethanethioamide] the same measures were over 10 µM, 109%, 0.33 µM, over 30 and 2%.
